Laboratory results published in ChEMBL document CHEMBL1201862, “PubChem BioAssay data set” (2004).
Activity calls are given as the source filed them.

Tests used:
[1] = target: T1, Rac GTPase-activating protein 1 (Homo sapiens, UniProt Q9H0H5); test: blockers of MgcRacGAP-driven Rac1 GTP hydrolysis – biochemical, ADP Hunter fluorescence, primary and confirmatory, confirmation (AID 624330); format: functional
T1 sequence (Q9H0H5 whole entry): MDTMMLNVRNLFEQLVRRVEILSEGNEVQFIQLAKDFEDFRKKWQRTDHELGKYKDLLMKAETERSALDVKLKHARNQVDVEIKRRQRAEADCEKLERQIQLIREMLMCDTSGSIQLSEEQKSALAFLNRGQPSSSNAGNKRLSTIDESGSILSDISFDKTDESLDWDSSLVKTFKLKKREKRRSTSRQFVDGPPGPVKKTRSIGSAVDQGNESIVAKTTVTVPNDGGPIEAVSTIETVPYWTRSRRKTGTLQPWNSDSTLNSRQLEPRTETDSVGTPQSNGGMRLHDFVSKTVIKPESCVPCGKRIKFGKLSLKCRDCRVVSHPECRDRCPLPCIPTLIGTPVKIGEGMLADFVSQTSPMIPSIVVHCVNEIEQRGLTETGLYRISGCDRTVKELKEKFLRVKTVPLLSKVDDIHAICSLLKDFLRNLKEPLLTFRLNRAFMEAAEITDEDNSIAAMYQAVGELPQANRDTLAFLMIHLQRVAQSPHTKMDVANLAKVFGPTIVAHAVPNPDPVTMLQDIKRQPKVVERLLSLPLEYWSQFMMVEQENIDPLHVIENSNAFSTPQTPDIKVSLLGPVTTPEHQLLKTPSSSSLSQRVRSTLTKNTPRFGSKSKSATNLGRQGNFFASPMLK

[2] = target: T2, DNA repair protein RAD52 homolog (Homo sapiens, UniProt P43351); format: functional, biochemical
T2 sequence (P43351 whole entry): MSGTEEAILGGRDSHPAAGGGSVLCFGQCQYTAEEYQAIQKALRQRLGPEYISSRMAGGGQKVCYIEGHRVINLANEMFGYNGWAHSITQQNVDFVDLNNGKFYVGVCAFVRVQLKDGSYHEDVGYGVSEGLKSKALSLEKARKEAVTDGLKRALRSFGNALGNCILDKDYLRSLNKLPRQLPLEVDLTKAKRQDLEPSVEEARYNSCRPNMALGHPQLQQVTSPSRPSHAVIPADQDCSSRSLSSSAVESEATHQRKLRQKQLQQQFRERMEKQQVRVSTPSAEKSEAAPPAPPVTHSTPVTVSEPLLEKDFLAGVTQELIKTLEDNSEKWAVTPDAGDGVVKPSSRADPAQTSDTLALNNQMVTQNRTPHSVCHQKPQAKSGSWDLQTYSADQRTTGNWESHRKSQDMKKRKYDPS

[3] = target: T3, fMet-Leu-Phe receptor (Homo sapiens, UniProt P21462); test: formyl peptide receptor binders – dose response (AID 519); format: functional
T3 sequence (P21462 whole entry): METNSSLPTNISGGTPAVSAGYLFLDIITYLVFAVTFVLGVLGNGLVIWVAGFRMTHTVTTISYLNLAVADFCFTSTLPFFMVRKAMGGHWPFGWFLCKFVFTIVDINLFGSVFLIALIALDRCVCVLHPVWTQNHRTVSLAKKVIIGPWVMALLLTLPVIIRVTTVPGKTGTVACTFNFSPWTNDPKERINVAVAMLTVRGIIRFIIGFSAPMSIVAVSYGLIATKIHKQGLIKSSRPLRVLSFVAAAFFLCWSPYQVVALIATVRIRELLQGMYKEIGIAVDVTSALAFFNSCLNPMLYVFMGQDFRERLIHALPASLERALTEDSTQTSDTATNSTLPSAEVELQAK

[4] = A cytotoxicity screen of small molecule inhibitors of the PhoP region in Salmonella typhi identified in the primary screen. [Related pubchem assays: 1850, 1864, 1985 ]; format: functional
[5] = target: Prothrombin (Homo sapiens, UniProt P00734); test: Thrombin 1536 HTS Dose Response Confirmation. [Related pubchem assays: 1046 (Thrombin 1536 HTS; hits were confirmed in this assay)]; format: functional
[6] = target: Disintegrin and metalloproteinase domain-containing protein 17 (Homo sapiens, UniProt P78536); test: inhibition of ADAM17 substrate cleavage – biochemical, quenched FRET substrate, counter-screen for ADAM10 exosite inhibitor project, dose response (AID 743253)
[7] = potency of ADAM10 substrate cleavage blockers – biochemical, QFRET, dose response (AID 743254);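 further: ADAM10 enzyme with the DM2 quenched FRET peptide as substrate; EDANS fluorescence gain as the protease cuts the substrate; inhibitor potency against ADAM10 proteolytic activity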
[8] = OVCAR-3 cell viability loss – plate reader, dry powder samples, PAX8 inhibitor project, dose response (AID 743044); format: functional, cell-based
[9] = target: Paired box protein Pax-8 (Homo sapiens, UniProt Q06710); test: PAX8 transcriptional activity inhibition in RMG-I – RMG-I cells, luciferase, cherry-pick, dose response (AID 687027); format: functional, cell-based;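 further: luciferase reporter driven by Pax8 target thyroperoxidase promoter measured by SteadyGlo luminescence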
[10] = IGROV1 cell killing – plate reader, dry powder samples, PAX8 inhibitor project, dose response (AID 743043); format: functional, cell-based; settings: IGROV-1
[11] = OVCAR8 cell viability loss – plate reader, dry powder samples, PAX8 project, dose response (AID 743197); format: functional, cell-based; settings: OVCAR-8
[12] = general cell-killing toxicity readout – plate reader, dry powder samples, cytotoxicity control for PAX8 inhibitor project, dose response (AID 743021); format: functional, cell-based
[13] = blockade of melanocortin 4 receptor signaling – cell-based, plate reader, cherry pick, counter-screen for LGR2 antagonist project, dose response (AID 743444); format: functional;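 further: transfected HEK 293 cells stimulated with alpha-MSH peptide; potency of inhibitors of the alpha-MSH evoked signal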
[14] = viability loss in HEK293 cells – cell-based, plate reader, cherry-picked samples, cytotoxicity control, dose response (AID 743446); format: functional
[15] = A549 cell cytotoxicity, dose response, cytotoxicity control, plate reader, cherry-pick, antagonist series (AID 743412); format: functional, cell-based
[16] = toxicity toward HepG2 liver cells – cell-based, plate reader, cherry-pick, antagonist series, cytotoxicity control, dose response (AID 743416); format: functional
[17] = blockers of bursicon-stimulated LGR2 cAMP reporter – cell-based, HEK293, CRE-luciferase reporter, cherry pick, set 2, dose response (AID 743343); format: functional;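 further: transfected cells were stimulated with diluted bursicon conditioned medium after compound addition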
[18] = nonselective StAR promoter luciferase inhibitors – cell-based, luminescence, luciferase reporter, counter-screen for LRH-1 inverse agonist project, dose response (AID 651969); format: functional
[19] = target: Nuclear receptor subfamily 5 group A member 2 (Homo sapiens, UniProt O00482); format: functional, cell-based;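 further: HEK293T cells transfected with LRH-1 and a StAR promoter luciferase reporter; potency for inhibitors that lower LRH-1 driven reporter light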
[20] = target: Steroidogenic factor 1 (Homo sapiens, UniProt Q13285); test: Counterscreen for inverse agonists of the liver receptor homolog-1 (LRH-1; NR5A2): Luminescence-based cell-based high throughput dose response assay to identify inverse agonists of the Steroidogenic Factor 1 Nuclear Receptor (SF1; NR5A1).; format: functional
[21] = system: H4; test: Luminescence Cell-Based Dose Response HTS to Identify Activators of 5'UTR Stem-Loop Driven Prion Protein mRNA Translation in H4 Neuroglioblastoma Cells. [Related pubchem assays: 1829 (Project Summary), 1814 (Primary HTS)]; format: functional; settings: Homo sapiens
[22] = Luminescence Cell-Based Dose Response HTS to Identify Activators of Luciferase Translation or Activity in H4 […] Cells. [Related pubchem assays: 1829 (Project Summary), 1814 (Primary HTS)]; format: functional

Paired box protein Pax-8, sequence (Q06710 whole entry): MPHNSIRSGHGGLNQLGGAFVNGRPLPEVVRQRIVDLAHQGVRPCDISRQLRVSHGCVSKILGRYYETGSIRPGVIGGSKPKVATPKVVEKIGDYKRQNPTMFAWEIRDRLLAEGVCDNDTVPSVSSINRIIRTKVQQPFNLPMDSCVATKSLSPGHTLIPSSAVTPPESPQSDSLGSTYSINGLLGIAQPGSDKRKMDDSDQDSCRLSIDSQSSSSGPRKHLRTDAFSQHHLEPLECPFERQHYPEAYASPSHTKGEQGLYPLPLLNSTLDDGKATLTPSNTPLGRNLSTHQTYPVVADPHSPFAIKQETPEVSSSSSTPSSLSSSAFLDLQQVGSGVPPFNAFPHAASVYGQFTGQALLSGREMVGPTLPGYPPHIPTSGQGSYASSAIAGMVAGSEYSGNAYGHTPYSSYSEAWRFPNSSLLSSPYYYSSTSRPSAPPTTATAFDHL
Disintegrin and metalloproteinase domain-containing protein 17, sequence (P78536 whole entry, the tested form may be a part): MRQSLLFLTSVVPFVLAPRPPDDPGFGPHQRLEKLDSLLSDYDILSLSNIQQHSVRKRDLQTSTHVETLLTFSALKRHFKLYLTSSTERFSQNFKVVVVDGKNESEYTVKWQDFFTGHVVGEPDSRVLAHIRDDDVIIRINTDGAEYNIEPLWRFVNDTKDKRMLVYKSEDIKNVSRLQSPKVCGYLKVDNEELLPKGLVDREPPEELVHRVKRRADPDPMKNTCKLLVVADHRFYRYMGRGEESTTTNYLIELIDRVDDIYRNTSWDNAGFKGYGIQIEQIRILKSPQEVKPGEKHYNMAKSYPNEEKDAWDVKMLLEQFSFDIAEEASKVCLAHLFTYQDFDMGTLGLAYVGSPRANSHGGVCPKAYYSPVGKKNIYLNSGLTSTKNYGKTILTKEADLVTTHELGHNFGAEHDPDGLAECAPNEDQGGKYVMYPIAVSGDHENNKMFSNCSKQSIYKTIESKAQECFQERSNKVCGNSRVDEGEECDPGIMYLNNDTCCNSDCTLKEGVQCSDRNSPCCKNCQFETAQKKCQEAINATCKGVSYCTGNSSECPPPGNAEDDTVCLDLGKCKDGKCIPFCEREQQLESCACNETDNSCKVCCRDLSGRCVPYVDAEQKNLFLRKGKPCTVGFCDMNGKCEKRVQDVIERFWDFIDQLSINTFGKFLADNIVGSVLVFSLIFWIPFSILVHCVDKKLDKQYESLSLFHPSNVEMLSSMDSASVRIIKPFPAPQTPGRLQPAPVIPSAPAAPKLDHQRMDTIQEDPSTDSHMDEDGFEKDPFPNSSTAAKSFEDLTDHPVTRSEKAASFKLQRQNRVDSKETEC
Nuclear receptor subfamily 5 group A member 2, sequence (O00482 whole entry): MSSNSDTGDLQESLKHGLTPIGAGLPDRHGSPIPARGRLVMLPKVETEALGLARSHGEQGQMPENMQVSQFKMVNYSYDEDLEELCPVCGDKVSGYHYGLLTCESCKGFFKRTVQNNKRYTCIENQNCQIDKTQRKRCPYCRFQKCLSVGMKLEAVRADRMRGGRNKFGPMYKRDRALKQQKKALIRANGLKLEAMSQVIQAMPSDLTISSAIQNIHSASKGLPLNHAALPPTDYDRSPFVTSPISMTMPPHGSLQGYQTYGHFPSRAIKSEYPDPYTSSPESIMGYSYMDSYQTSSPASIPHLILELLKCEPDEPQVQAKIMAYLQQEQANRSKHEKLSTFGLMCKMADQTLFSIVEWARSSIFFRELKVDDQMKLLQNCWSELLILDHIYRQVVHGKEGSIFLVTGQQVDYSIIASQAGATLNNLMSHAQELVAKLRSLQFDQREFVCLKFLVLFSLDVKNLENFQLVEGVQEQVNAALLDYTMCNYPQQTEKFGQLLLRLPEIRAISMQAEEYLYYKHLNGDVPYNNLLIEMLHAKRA
Steroidogenic factor 1, sequence (Q13285 whole entry): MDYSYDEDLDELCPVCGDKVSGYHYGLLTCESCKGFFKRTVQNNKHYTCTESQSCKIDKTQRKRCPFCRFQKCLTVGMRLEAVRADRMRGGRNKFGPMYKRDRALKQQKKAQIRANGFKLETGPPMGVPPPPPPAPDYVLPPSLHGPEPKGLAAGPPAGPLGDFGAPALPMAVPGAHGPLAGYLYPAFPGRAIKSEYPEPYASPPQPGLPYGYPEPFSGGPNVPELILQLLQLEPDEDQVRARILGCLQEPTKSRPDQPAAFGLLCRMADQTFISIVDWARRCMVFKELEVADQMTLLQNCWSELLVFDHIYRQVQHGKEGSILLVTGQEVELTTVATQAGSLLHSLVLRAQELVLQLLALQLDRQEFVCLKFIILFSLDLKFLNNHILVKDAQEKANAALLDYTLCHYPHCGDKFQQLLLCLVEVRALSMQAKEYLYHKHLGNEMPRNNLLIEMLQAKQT

With `CCCCN(CC)CCNC(=O)CCC(=O)Nc1ccc2nc(N3CCN(C)CC3)cc(C)c2c1` the IC50 [1] was 164 µM (active) and the AC50 [2] was 3.22 µM (active).
With `CCCNC(=O)CS(=O)(=O)Cc1nc(-c2cccc(OC)c2)oc1C` the Ki [3] was > 66.7 µM (inactive).
For `C1=C(CCNCc2ccccc2)CCCC1`, the EC50 [4] was > 50 µM (active).
For `O=C1CCC(C(=O)Nc2cccc3ccccc23)N1` (stereo not given), the IC50 [5] was > 50 µM (not active).
For `C=CCC[C@@H](Cc1ccc(F)cc1)C(=O)OC[C@H](Cc1c[nH]c2ccccc12)NC(=O)[C@H](CC=C)CC(=O)N(CCO)Cc1ccccc1`, the IC50 [6] was > 69.5 µM (inactive) and the IC50 [7] was 5.38 µM (active).
For `Cc1cc(F)ccc1C(O)c1nc(-c2cccc(OCc3ccccc3)c2)c[nH]1` (stereo not given), the IC50 [6] was > 69.5 µM (inactive) and the IC50 [7] was 13.9 µM (inactive).
In the case of `C[C@@H]1CCCCO[C@@H](CN(C)Cc2ccc(Cl)c(Cl)c2)[C@@H](C)CN([C@@H](C)CO)C(=O)c2cc(NC(=O)Nc3ccccc3)ccc2O1`, the AC50 [8] is reported as 30.2 µM (active), the AC50 [9] is reported as 4.6 µM (active) and the AC50 [10] is reported as 49.2 µM (active).
With `CCS(=O)(=O)N1CC(=O)N2[C@H](CO)[C@@H](c3ccc(-c4ccccc4F)cc3)[C@H]2C1` the AC50 [11] was 63 µM (active), the AC50 [8] was 14.1 µM (active) and the AC50 [9] was 5.26 µM (active). The AC50 [10] was 28.6 µM (active) and the AC50 [12] was 60.5 µM (active).
For `N#C[C@H]1[C@H](c2ccc(C#Cc3ccccc3F)cc2)[C@H](CO)N1C(=O)C1CCC1`, the AC50 [13] was 14.7 µM (active), the AC50 [14] was 17.9 µM (active) and the AC50 [15] was 29.7 µM (active). The AC50 [8] was 23.8 µM (active), the AC50 [9] was 11.1 µM (active) and the AC50 [16] was 32.2 µM (active). For the same compound, the AC50 [12] was 21.9 µM (active) and the AC50 [17] was 11.4 µM (active).
With `C[C@@H]1CN([C@@H](C)CO)C(=O)c2cc(NC(=O)CCC(F)(F)F)ccc2O[C@@H](C)CCCCO[C@H]1CN(C)Cc1ccc(C(F)(F)F)cc1` the AC50 [11] was 50.8 µM (active), the AC50 [8] was 17.2 µM (active) and the AC50 [9] was 2.43 µM (active). The AC50 [10] was 65.5 µM (active).
For `Cc1occc1C(=O)N/N=C/C=C/c1ccccc1`, the EC50 [4] was > 50 µM (active).
In the case of `Cc1no[n+]([O-])c1COc1ccccc1/C=N/n1nnnc1N`, the IC50 [18] is reported as 35.9 µM (inactive), the IC50 [19] is reported as 35.9 µM (inactive) and the IC50 [20] is reported as 35.9 µM (inactive). For the same compound, the EC50 [21] was 98.6 µM (active) and the EC50 [22] was 7.52 µM (active).
